The NIST ThermoML archive (doi:10.1016/j.jct.2016.01.021)
± gives the expanded uncertainty stated by the source.

Legend:
[1] = 100 kPa, Liquid; for viscosity: Capillary tube (Ostwald / Ubbelohde) method; for mass density: Vibrating tube method
[2] = xn = mol fraction of the nth substance listed; conditions: 100 kPa, Liquid, x1 = 1; for viscosity: Capillary tube (Ostwald / Ubbelohde) method; for mass density: Vibrating tube method

| Compound | viscosity ([1]; 298.15 K) [mPa·s] | mass density ([1]; 298.15 K) [kg/m3] | viscosity ([1]; 303.15 K) [mPa·s] | mass density ([1]; 303.15 K) [kg/m3] | viscosity ([1]; 308.15 K) [mPa·s] | mass density ([1]; 308.15 K) [kg/m3] | viscosity ([1]; 313.15 K) [mPa·s] | mass density ([1]; 313.15 K) [kg/m3] | viscosity ([1]; 318.15 K) [mPa·s] | mass density ([1]; 318.15 K) [kg/m3] | viscosity ([1]; 323.15 K) [mPa·s] | mass density ([1]; 323.15 K) [kg/m3] | viscosity ([2]; 298.15 K) [mPa·s] | mass density ([2]; 298.15 K) [kg/m3] | viscosity ([2]; 303.15 K) [mPa·s] | mass density ([2]; 303.15 K) [kg/m3] | viscosity ([2]; 308.15 K) [mPa·s] | mass density ([2]; 308.15 K) [kg/m3] | viscosity ([2]; 313.15 K) [mPa·s] | mass density ([2]; 313.15 K) [kg/m3] | further results |
| --- | --- | --- | --- | --- | --- | --- | --- | --- | --- | --- | --- | --- | --- | --- | --- | --- | --- | --- | --- | --- | --- |
| CCCCCCCCCCCC(=O)OCC [ethyl dodecanoate] | 3.015 ± 0.064 | 858.19 ± 0.83 | 2.704 ± 0.057 | 854.3 ± 0.83 | 2.439 ± 0.052 | 850.4 ± 0.83 | 2.213 ± 0.047 | 846.5 ± 0.83 | 2.016 ± 0.043 | 842.6 ± 0.83 | 1.846 ± 0.039 | 838.7 ± 0.83 |  |  |  |  |  |  |  |  |  |
| CCCCCCCC(=O)OCC [ethyl octanoate] | 1.428 ± 0.03 | 862.64 ± 0.83 | 1.313 ± 0.028 | 858.34 ± 0.83 | 1.211 ± 0.026 | 854.04 ± 0.83 | 1.121 ± 0.024 | 849.72 ± 0.83 | 1.042 ± 0.022 | 845.39 ± 0.83 | 0.971 ± 0.021 | 841.06 ± 0.83 |  |  |  |  |  |  |  |  |  |
| CCCCCCCCCCCCCCCC [hexadecane] + CCCCCCCCCC(=O)OCC |  |  |  |  |  |  |  |  |  |  |  |  | 3.085 ± 0.066 | 769.92 ± 0.83 | 2.756 ± 0.059 | 766.51 ± 0.83 | 2.478 ± 0.053 | 763.06 ± 0.83 | 2.239 ± 0.048 | 759.6 ± 0.83 | viscosity ([2]; 318.15 K): 2.034 ± 0.043 mPa·s; mass density ([2]; 318.15 K): 756.14 ± 0.83 kg/m3; viscosity ([2]; 323.15 K): 1.857 ± 0.04 mPa·s; mass density ([2]; 323.15 K): 752.68 ± 0.83 kg/m3 |
| CCCCCCCCCCCCCCCC [hexadecane] + CCCCCCCC(=O)OCC |  |  |  |  |  |  |  |  |  |  |  |  | 3.085 ± 0.066 | 769.92 ± 0.83 | 2.756 ± 0.059 | 766.51 ± 0.83 | 2.478 ± 0.053 | 763.06 ± 0.83 | 2.239 ± 0.048 | 759.6 ± 0.83 | viscosity ([2]; 318.15 K): 2.034 ± 0.043 mPa·s; mass density ([2]; 318.15 K): 756.14 ± 0.83 kg/m3; viscosity ([2]; 323.15 K): 1.857 ± 0.04 mPa·s; mass density ([2]; 323.15 K): 752.68 ± 0.83 kg/m3 |
| CCCCCCCCCCCCCCCC [hexadecane] + CCCCCCCCCCCC(=O)OCC |  |  |  |  |  |  |  |  |  |  |  |  | 3.085 ± 0.066 | 769.92 ± 0.83 | 2.756 ± 0.059 | 766.51 ± 0.83 | 2.478 ± 0.053 | 763.06 ± 0.83 | 2.239 ± 0.048 | 759.6 ± 0.83 | viscosity ([2]; 318.15 K): 2.034 ± 0.043 mPa·s; mass density ([2]; 318.15 K): 756.14 ± 0.83 kg/m3; viscosity ([2]; 323.15 K): 1.857 ± 0.04 mPa·s; mass density ([2]; 323.15 K): 752.68 ± 0.83 kg/m3 |
| CCCCCCCCCCCCCCCC [hexadecane] | 3.085 ± 0.066 | 769.92 ± 0.83 | 2.756 ± 0.059 | 766.51 ± 0.83 | 2.478 ± 0.053 | 763.06 ± 0.83 | 2.239 ± 0.048 | 759.6 ± 0.83 | 2.034 ± 0.043 | 756.14 ± 0.83 | 1.857 ± 0.04 | 752.68 ± 0.83 |  |  |  |  |  |  |  |  |  |
| CCCCCCCCCC(=O)OCC [ethyl decanoate] | 2.115 ± 0.045 | 860.05 ± 0.83 | 1.919 ± 0.041 | 855.99 ± 0.83 | 1.75 ± 0.037 | 851.92 ± 0.83 | 1.603 ± 0.034 | 847.85 ± 0.83 | 1.474 ± 0.031 | 843.77 ± 0.83 | 1.362 ± 0.029 | 839.69 ± 0.83 |  |  |  |  |  |  |  |  |  |
